{
  "source": "patent US20110240014A1",
  "about": "“SUBSTRATES FOR DRUG DELIVERY DEVICE AND METHODS OF PREPARING AND USE” (ALEXZA PHARMACEUTICALS, INC., priority 2003, published 2011)",
  "key": {"[1]": {"experiment": "Vaporization of budesonide film from clean and treated steel foils 304, T-430 and zirconium oxide coated 304; aerosol purity, yield and recovery by HPLC", "assay_type": "physicochemical", "settings": "in all cases (all foils of Example 5)", "from_the_text": "Generation of budesonide aerosol from clean and treated steel foils 304 and T-430. […] All foils were dip-coated with a budesonide solution in dichloromethane."}, "[2]": {"experiment": "Vaporization of bumetanide film from heat-treated, nitric acid-treated and non-treated 304 stainless steel foil; aerosol purity, yield and recovery by HPLC", "settings": "for mass recovered from the filter / percent yield (recovered from the filter) / total mass recovered from the filter, test apparatus and substrate / Purity of the drug aerosol particles: coating 1.4 μm, 0.77 mg applied; for Purity of the drug aerosol particles: peak about 320° C."}, "[3]": {"experiment": "Vaporization of eletriptan film from heat-treated and non-treated 304 stainless steel foil; aerosol purity, yield and recovery by HPLC", "assay_type": "physicochemical", "settings": "for mass recovered from the filter / percent yield (recovered from the filter) / total mass recovered from the filter, test apparatus and substrate / Purity of the drug aerosol particles: film thickness 4.2 μm, 2.26 mg applied; for Purity of the drug aerosol particles: peak about 450° C.", "excerpt": "All foils were dip-coated with an eletriptan solution in acetone."}, "[4]": {"experiment": "Vaporization of flunisolide film from stainless steel foil substrates (304, T-430, zirconium oxide coated 304); aerosol purity, yield and recovery by HPLC", "settings": "for Purity of the drug aerosol particles: peak about 350° C."}, "[5]": {"settings": "acid-treated (nitric acid) substrate"}, "[6]": {"settings": "0.5 μm coating on the heat-treated substrate"}, "[7]": {"settings": "1.5 μm coating on the non-treated substrate"}, "[8]": {"settings": "heat-treated substrate 304, film thickness 0.5 μm, 0.253 mg applied"}, "[9]": {"settings": "heat-treated substrate 304, film thickness 1.5 μm, 0.443 mg applied"}, "[10]": {"settings": "non-treated substrate 304, film thickness 0.9 μm, 0.485 mg applied"}, "[11]": {"settings": "non-treated substrate T-430, film thickness 1.3 μm, 0.68 mg applied"}, "[12]": {"settings": "substrate 304 (treatment not stated), film thickness 1.2 μm, 0.65 mg applied"}, "[13]": {"settings": "zirconium oxide coated substrate 304, film thickness 0.8 μm, 0.44 mg applied"}},
  "note": "Entries after “also recorded” stand apart in the source; their conditions may differ.",
  "data": [
    {"smiles": "CCCC1O[C@@H]2C[C@H]3[C@@H]4CCC5=CC(=O)C=C[C@]5(C)[C@H]4[C@@H](O)C[C@]3(C)[C@]2(C(=O)CO)O1", "note": "(some centres unmarked) [budesonide]", "values": [
      {"measurement": "quantity of drug remaining on the foil after vaporization", "setting": "[1]", "result": "less than 5 % of the loaded dose"}
    ]},
    {"smiles": "CCCCNc1cc(C(=O)O)cc(S(N)(=O)=O)c1Oc1ccccc1", "note": "[bumetanide]", "values": [
      {"measurement": "mass recovered from the filter", "setting": "[2]; [5]", "result": 0.41, "unit": "mg"},
      {"measurement": "percent yield (recovered from the filter)", "setting": "[2]; [5]", "result": 53, "unit": "%"},
      {"measurement": "total mass recovered from the filter, test apparatus and substrate", "setting": "[2]; [5]", "result": 0.42, "unit": "mg"},
      {"measurement": "Purity of the drug aerosol particles", "setting": "[2]; [5]", "result": 98.3, "unit": "%"},
      {"measurement": "Purity of the drug aerosol particles", "setting": "[2]; heat-treated substrate (350° C., 6 hours)", "result": 99.3, "unit": "%"},
      {"measurement": "mass recovered from the filter", "setting": "[2]; heat-treated substrate", "result": 0.40, "unit": "mg"},
      {"measurement": "percent yield (recovered from the filter)", "setting": "[2]; heat-treated substrate", "result": 52, "unit": "%"},
      {"measurement": "total mass recovered from the filter, test apparatus and substrate", "setting": "[2]; heat-treated substrate", "result": 0.41, "unit": "mg"},
      {"measurement": "quantity of drug remaining on the foil after vaporization", "setting": "[2]; in all cases (all foils of Example 4)", "result": "less than 5 % of the loaded dose"},
      {"measurement": "mass recovered from the filter", "setting": "[2]; non-treated substrate", "result": 0.37, "unit": "mg"},
      {"measurement": "percent yield (recovered from the filter)", "setting": "[2]; non-treated substrate", "result": 48, "unit": "%"},
      {"measurement": "total mass recovered from the filter, test apparatus and substrate", "setting": "[2]; non-treated substrate", "result": 0.37, "unit": "mg"},
      {"measurement": "Purity of the drug aerosol particles", "setting": "[2]; non-treated substrate", "result": 97.9, "unit": "%"}
    ]},
    {"smiles": "CN1CCC[C@@H]1Cc1c[nH]c2ccc(CCS(=O)(=O)c3ccccc3)cc12", "note": "[eletriptan]", "values": [
      {"measurement": "mass recovered from the filter", "setting": "[3]; heat-treated 304 substrate", "result": 1.78, "unit": "mg"},
      {"measurement": "percent yield (recovered from the filter)", "setting": "[3]; heat-treated 304 substrate", "result": 78.9, "unit": "%"},
      {"measurement": "total mass recovered from the filter, test apparatus and substrate", "setting": "[3]; heat-treated 304 substrate", "result": 1.79, "unit": "mg"},
      {"measurement": "Purity of the drug aerosol particles", "setting": "[3]; heat-treated 304 substrate", "result": 95.6, "unit": "%"},
      {"measurement": "change of aerosol purity (in words)", "setting": "[3]; heat-treated versus non-treated foils, films between 4.0 and 9.5 μm (FIG. 8)", "result": "increase"},
      {"measurement": "quantity of drug remaining on the foil after vaporization", "setting": "[3]; in all cases (all foils of Example 2)", "result": "less than 15 % of the loaded dose"},
      {"measurement": "mass recovered from the filter", "setting": "[3]; non-treated 304 substrate", "result": 1.647, "unit": "mg"},
      {"measurement": "percent yield (recovered from the filter)", "setting": "[3]; non-treated 304 substrate", "result": 72.9, "unit": "%"},
      {"measurement": "total mass recovered from the filter, test apparatus and substrate", "setting": "[3]; non-treated 304 substrate", "result": 1.65, "unit": "mg"},
      {"measurement": "Purity of the drug aerosol particles", "setting": "[3]; non-treated 304 substrate", "result": 92.8, "unit": "%"}
    ]},
    {"smiles": "CC1(C)O[C@@H]2C[C@H]3[C@@H]4C[C@H](F)C5=CC(=O)C=C[C@]5(C)[C@H]4[C@@H](O)C[C@]3(C)[C@]2(C(=O)CO)O1", "note": "[flunisolide]", "values": [
      {"measurement": "aerosol particles yielded", "setting": "[4]; [6]", "result": "about 0.3 mg"},
      {"measurement": "coated dose emitted from the test apparatus", "setting": "[4]; [6]", "result": "97%-100"},
      {"measurement": "aerosol particles yielded", "setting": "[4]; [7]", "result": 0.2, "unit": "mg"},
      {"measurement": "coated dose emitted from the test apparatus", "setting": "[4]; [7]", "result": "about 25%"},
      {"measurement": "vapor purity (in words)", "setting": "[4]; clean, non-treated T-430 steel foil, compared with non-treated 304 (FIG. 7)", "result": "good vapor purities; also recorded: improved purities; also recorded: very good purities"},
      {"measurement": "purity of thermal vapor", "setting": "[4]; heat-treated 304 substrate, film thickness about 0.2 μm (FIG. 6)", "result": "about 93%"},
      {"measurement": "change of aerosol purity (in words)", "setting": "[4]; heat-treated T-430 foils versus non-treated T-430", "result": "no marked improvement"},
      {"measurement": "mass recovered from the filter", "setting": "[4]; [8]", "result": 0.253, "unit": "mg"},
      {"measurement": "percent yield (recovered from the filter)", "setting": "[4]; [8]", "result": 100, "unit": "%"},
      {"measurement": "total mass recovered from the test apparatus and substrate", "setting": "[4]; [8]", "result": 0.253, "unit": "mg"},
      {"measurement": "Purity of the drug aerosol particles", "setting": "[4]; [8]", "result": 94.4, "unit": "%"},
      {"measurement": "mass recovered from the filter", "setting": "[4]; [9]", "result": 0.255, "unit": "mg"},
      {"measurement": "percent yield (recovered from the filter)", "setting": "[4]; [9]", "result": 57.5, "unit": "%"},
      {"measurement": "total mass recovered from the test apparatus and substrate", "setting": "[4]; [9]", "result": 0.265, "unit": "mg"},
      {"measurement": "Purity of the drug aerosol particles", "setting": "[4]; [9]", "result": 76.5, "unit": "%"},
      {"measurement": "purity of thermal vapor", "setting": "[4]; heat-treated substrate, film thickness about 0.2 or 0.5 μm", "result": "about 93%"},
      {"measurement": "purity of thermal vapor", "setting": "[4]; heat-treated substrate, film thickness about 2.6 μm", "result": 83, "unit": "%"},
      {"measurement": "change of aerosol purity (in words)", "setting": "[4]; heat-treated versus non-treated 304 substrates, films 0.2 μm to 2.6 μm (FIG. 6)", "result": "marked improvement; also recorded: marked increase"},
      {"measurement": "quantity of drug remaining on the foil after vaporization", "setting": "[4]; in all cases (all foils of Example 1)", "result": "less than 15 % of the loaded dose"},
      {"measurement": "purity of thermal vapor", "setting": "[4]; non-treated 304 substrate, film thickness about 0.2 μm (FIG. 6)", "result": "about 50%"},
      {"measurement": "mass recovered from the filter", "setting": "[4]; [10]", "result": 0.206, "unit": "mg"},
      {"measurement": "percent yield (recovered from the filter)", "setting": "[4]; [10]", "result": 42.4, "unit": "%"},
      {"measurement": "total mass recovered from the test apparatus and substrate", "setting": "[4]; [10]", "result": 0.210, "unit": "mg"},
      {"measurement": "Purity of the drug aerosol particles", "setting": "[4]; [10]", "result": 36.3, "unit": "%"},
      {"measurement": "mass recovered from the filter", "setting": "[4]; [11]", "result": 0.47, "unit": "mg"},
      {"measurement": "percent yield (recovered from the filter)", "setting": "[4]; [11]", "result": 69.1, "unit": "%"},
      {"measurement": "total mass recovered from the test apparatus and substrate", "setting": "[4]; [11]", "result": 0.51, "unit": "mg"},
      {"measurement": "Purity of the drug aerosol particles", "setting": "[4]; [11]", "result": 82.8, "unit": "%"},
      {"measurement": "purity of thermal vapor", "setting": "[4]; non-treated substrate, film thickness about 1.5 μm", "result": 38, "unit": "%"},
      {"measurement": "mass recovered from the filter", "setting": "[4]; [12]", "result": 0.161, "unit": "mg"},
      {"measurement": "percent yield (recovered from the filter)", "setting": "[4]; [12]", "result": 24.7, "unit": "%"},
      {"measurement": "total mass recovered from the test apparatus and substrate", "setting": "[4]; [12]", "result": 0.172, "unit": "mg"},
      {"measurement": "Purity of the drug aerosol particles", "setting": "[4]; [12]", "result": 30.2, "unit": "%"},
      {"measurement": "vapor purity (in words)", "setting": "[4]; zirconium oxide coated 304 steel foil, without heat treatment (FIG. 7)", "result": "good aerosol purities; also recorded: improved purities; also recorded: very good vapor purities"},
      {"measurement": "mass recovered from the filter", "setting": "[4]; [13]", "result": 0.246, "unit": "mg"},
      {"measurement": "percent yield (recovered from the filter)", "setting": "[4]; [13]", "result": 55.9, "unit": "%"},
      {"measurement": "total mass recovered from the test apparatus and substrate", "setting": "[4]; [13]", "result": 0.31, "unit": "mg"},
      {"measurement": "Purity of the drug aerosol particles", "setting": "[4]; [13]", "result": 90.0, "unit": "%"}
    ]}
  ]
}
